Test results from ChEMBL document CHEMBL1141533, “Synthesis and pharmacological evaluation of a new targeted drug carrier system: beta-cyclodextrin coupled to oxytocin” (Bioorg Med Chem Lett, 2008).
Calls of active or inactive are those of the source. The rule behind the calls is not given here.

Assays:
Format in all cases: functional, tissue-based
Myometrium [1] = assay: Induction of contraction in beta-estradiol stimulated rat myometrium
Myometrium [2] = assay: Induction of contraction per minute in beta-estradiol stimulated rat myometrium at 0.6 uM
Myometrium [3] = assay: Induction of contraction per minute in beta-estradiol stimulated rat myometrium at 1 nM

CC[C@H](C)[C@@H]1NC(=O)[C@H](Cc2ccc(O)cc2)NC(=O)[C@@H](N)CSSC[C@@H](C(=O)N2CCC[C@H]2C(=O)N[C@@H](CC(C)C)C(=O)NCC(=O)NC[C@H]2O[C@@H]3O[C@H]4[C@H](O)[C@@H](O)[C@@H](O[C@H]5[C@H](O)[C@@H](O)[C@@H](O[C@H]6[C@H](O)[C@@H](O)[C@@H](O[C@H]7[C@H](O)[C@@H](O)[C@@H](O[C@H]8[C@H](O)[C@@H](O)[C@@H](O[C@H]9[C@H](O)[C@@H](O)[C@@H](O[C@H]2[C@H](O)[C@H]3O)O[C@@H]9CO)O[C@@H]8CO)O[C@@H]7CO)O[C@@H]6CO)O[C@@H]5CO)O[C@@H]4CO)NC(=O)[C@H](CC(N)=O)NC(=O)[C@H](CCC(N)=O)NC1=O
EC50 (Myometrium [1]): 400 nM

CC[C@H](C)[C@@H]1NC(=O)[C@H](Cc2ccc(O)cc2)NC(=O)[C@H](N)CSSC[C@@H](C(=O)N2CCC[C@H]2C(=O)N[C@@H](CC(C)C)C(=O)NCC(=O)NC[C@H]2O[C@@H]3O[C@H]4[C@H](O)[C@@H](O)[C@@H](O[C@H]5[C@H](O)[C@@H](O)[C@@H](O[C@H]6[C@H](O)[C@@H](O)[C@@H](O[C@H]7[C@H](O)[C@@H](O)[C@@H](O[C@H]8[C@H](O)[C@@H](O)[C@@H](O[C@H]9[C@H](O)[C@@H](O)[C@@H](O[C@H]2[C@H](O)[C@H]3O)O[C@@H]9CO)O[C@@H]8CO)O[C@@H]7CO)O[C@@H]6CO)O[C@@H]5CO)O[C@@H]4CO)NC(=O)[C@H](CC(N)=O)NC(=O)[C@H](CCC(N)=O)NC1=O
Activity (Myometrium [2]): Active

CC[C@H](C)[C@@H]1NC(=O)[C@H](Cc2ccc(O)cc2)NC(=O)[C@@H](N)CSSC[C@@H](C(=O)N2CCC[C@H]2C(=O)N[C@@H](CC(C)C)C(=O)NCC(N)=O)NC(=O)[C@H](CC(N)=O)NC(=O)[C@H](CCC(N)=O)NC1=O [OXYTOCIN]
EC50 (Myometrium [1]): 1.7 nM
Activity (Myometrium [3]): Active
